Measured values as given in PubChem BioAssay (NCI).
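Assay format: 96-well plates, 48-hour exposure. TGI: total growth inhibition.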

Key:
Assay in all cases: NCI anticancer screen, dose series, 48 h
HL-60(TB) leukemia = system: HL-60(TB) leukemia
LOX IMVI melanoma = system: LOX IMVI melanoma
MOLT-4 leukemia = system: MOLT-4 leukemia
SF-295 CNS = system: SF-295 CNS
UO-31 renal = system: UO-31 renal
OVCAR-3 ovarian = system: OVCAR-3 ovarian
SNB-75 CNS = system: SNB-75 CNS
HOP-62 NSCLC = system: HOP-62 NSCLC
SK-OV-3 ovarian = system: SK-OV-3 ovarian
SK-MEL-5 melanoma = system: SK-MEL-5 melanoma
CAKI-1 renal = system: CAKI-1 renal
NCI/ADR-RES ovarian = system: NCI/ADR-RES ovarian
TK-10 renal = system: TK-10 renal
NCI-H23 lung = system: NCI-H23 lung
SW-620 colon = system: SW-620 colon
PC-3 prostate = system: PC-3 prostate
OVCAR-5 ovarian = system: OVCAR-5 ovarian
EKVX NSCLC = system: EKVX NSCLC
HOP-92 NSCLC = system: HOP-92 NSCLC
U251 CNS = system: U251 CNS
NCI-H226 lung = system: NCI-H226 lung
UACC-62 melanoma = system: UACC-62 melanoma
OVCAR-8 ovarian = system: OVCAR-8 ovarian
HCT-116 colon = system: HCT-116 colon
MCF7 breast = system: MCF7 breast
RPMI-8226 leukemia = system: RPMI-8226 leukemia
SNB-19 CNS = system: SNB-19 CNS
UACC-257 melanoma = system: UACC-257 melanoma
A549 NSCLC = system: A549 NSCLC
HCT-15 colon = system: HCT-15 colon
CCRF-CEM leukemia = system: CCRF-CEM leukemia
MDA-MB-231 breast = system: MDA-MB-231 breast
SK-MEL-28 melanoma = system: SK-MEL-28 melanoma
ACHN renal = system: ACHN renal
SF-539 CNS = system: SF-539 CNS
IGROV1 ovarian = system: IGROV1 ovarian
OVCAR-4 ovarian = system: OVCAR-4 ovarian
786-0 renal = system: 786-0 renal
HT29 colon = system: HT29 colon
RXF 393 renal = system: RXF 393 renal
K-562 leukemia = system: K-562 leukemia
A498 renal = system: A498 renal
NCI-H522 lung = system: NCI-H522 lung
SK-MEL-2 melanoma = system: SK-MEL-2 melanoma
KM12 colon = system: KM12 colon
NCI-H460 lung = system: NCI-H460 lung
HCC-2998 colon = system: HCC-2998 colon
MDA-MB-435 = system: MDA-MB-435
MDA-N = system: MDA-N
M14 melanoma = system: M14 melanoma
BT-549 breast = system: BT-549 breast
SF-268 CNS = system: SF-268 CNS
DU-145 prostate = system: DU-145 prostate
HS 578T breast = system: HS 578T breast
MALME-3M melanoma = system: MALME-3M melanoma
SN12C renal = system: SN12C renal
T-47D breast = system: T-47D breast
COLO 205 colon = system: COLO 205 colon

Measured: TGI

Nc1ncnc2c1ccn2COC(CO)CO
not listed: COLO 205 colon
> 100 µM: all other assays above

Oc1ccc(C=NCC2CCCN3CCCCC23)cc1 (stereo not drawn)
39.4 µM: MDA-N
38.6 µM: SK-MEL-28 melanoma
41.9 µM: SN12C renal
> 67.8 µM: IGROV1 ovarian
51.4 µM: SK-MEL-5 melanoma
> 96.5 µM: SNB-75 CNS
86 µM: RPMI-8226 leukemia
35.3 µM: KM12 colon
61.5 µM: BT-549 breast
73.4 µM: NCI-H460 lung
74.8 µM: MDA-MB-231 breast
> 62 µM: NCI-H23 lung
34.9 µM: ACHN renal
58.4 µM: NCI-H226 lung
63 µM: HCT-15 colon
> 56.7 µM: UO-31 renal
31.3 µM: DU-145 prostate
27 µM: MDA-MB-435
42.3 µM: OVCAR-4 ovarian
85.5 µM: HS 578T breast
> 59.5 µM: OVCAR-5 ovarian
39.5 µM: CAKI-1 renal
> 66.7 µM: COLO 205 colon
62.3 µM: UACC-257 melanoma
> 75.4 µM: EKVX NSCLC
30.7 µM: HT29 colon
74.1 µM: MALME-3M melanoma
97.4 µM: SK-OV-3 ovarian
> 62.8 µM: A549 NSCLC
> 76.9 µM: SF-295 CNS
49.4 µM: SK-MEL-2 melanoma
63.3 µM: SNB-19 CNS
67.3 µM: HOP-92 NSCLC
43.9 µM: RXF 393 renal
40.4 µM: HCC-2998 colon
> 69.5 µM: UACC-62 melanoma
49.5 µM: HCT-116 colon
47.3 µM: NCI-H522 lung
55.5 µM: TK-10 renal
34.8 µM: U251 CNS
36.7 µM: 786-0 renal
> 69.3 µM: OVCAR-3 ovarian
83.9 µM: A498 renal
> 75.1 µM: HOP-62 NSCLC
> 68.5 µM: SF-268 CNS
> 57.6 µM: M14 melanoma
71.3 µM: T-47D breast
not listed: HL-60(TB) leukemia | SW-620 colon | CCRF-CEM leukemia
> 100 µM: all other assays above

O=C(O)C(F)(F)C(F)(F)C(F)(F)C(F)(F)C(F)(F)C(F)(F)C(F)(F)C(F)(F)F
58.7 µM: HOP-92 NSCLC
92.4 µM: K-562 leukemia
86.6 µM: SK-OV-3 ovarian
62.4 µM: HL-60(TB) leukemia
not listed: RPMI-8226 leukemia | SK-MEL-2 melanoma
> 100 µM: all other assays above
